Test results reported in patent US20250282782A1, “PYRAZOLOPYRAZINE COMPOUNDS AS SHP2 INHIBITORS” (Genzyme Corporation, priority 2021, published 2025).
pIC50: −log10 of the molar value.

Target: human recombinant 6His-Nterm SHP2 full-length (Thr2-Arg593) (Homo sapiens (Human), UniProt Q06124)
Test: SHP2 phosphatase assay (DiFMUP substrate, activating peptide)
Type: biochemical
Description: Inhibition of SHP2 phosphatase activity was evaluated using human recombinant 6His-Nterm (SEQ ID NO: 1) SHP2 full-length (Thr2-Arg593, R&D system), NsCs bi-phosphorylated activating peptide (NH2-LN(pY)AQLWHA(PEG8)LTI(pY)ATIRRF-Amide.acetate (SEQ ID NO: 2), Thermofischer Scientific) and DiFMUP as surrogate phosphatase substrate (Molecular Probes). All reactions were performed at room temperature in 384-well black polystyrene non-binding plate (Corning) with the assay buffer (50 mM HEPES-NaOH pH 7.2, 100 mM NaCl, 0.5 mM EDTA, 0.001% Brij35 including 0.02% BSA and 1 mM DTT added extemporaneously). SHP2 was pre-incubated at least 10 min with the activating peptide (0.2 nM and 100 nM, respectively). 10 μL of this mixture was added to the assay plate, that already contained 15 nL of the compound (1000-0.05 nM). After 30 min pre-incubation, the enzymatic reaction was initiated by the addition of 5 μL DiFMUP in assay buffer without BSA (20 μM). The reaction was stopped by the addition of 15 μL sodium pervanadate solution (100 μM) after 45 min incubation. The fluorescence signal was measured at excitation and emission wavelengths of 350 nm and 450 nm, respectively, using a Pherastar instrument (BMG-LabTech). Percentage of inhibition (I %) were calculated from the fluorescence signal at 450 nm of the positive and negative control using the following formula: […]
Positive control (Max): corresponds to the maximum fluorescence signal obtained in the presence of 15 nL DMSO replacing the inhibitor in the pre-incubation step.
Negative control (Min): corresponds to the minimum signal obtained in the presence of 1 μM of RMC-4550, the structure of which is shown below:
The IC50 were then calculated from a dose-response curve of 10 concentrations of tested compound using the 4-parameter logistic model:
The parameters A and (A+C) are the lower and upper limits, B is the slope of the curve at the inflexion point, M parameter is the logarithm of the abscissa at the inflexion point, and X is the concentration of compound.

[1] = full-length SHP2 0.2 nM pre-activated with bi-phosphorylated peptide 100 nM, DiFMUP 20 μM, 10-concentration dose-response

Chain of human recombinant 6His-Nterm SHP2 full-length (Thr2-Arg593) (Q06124 2-593): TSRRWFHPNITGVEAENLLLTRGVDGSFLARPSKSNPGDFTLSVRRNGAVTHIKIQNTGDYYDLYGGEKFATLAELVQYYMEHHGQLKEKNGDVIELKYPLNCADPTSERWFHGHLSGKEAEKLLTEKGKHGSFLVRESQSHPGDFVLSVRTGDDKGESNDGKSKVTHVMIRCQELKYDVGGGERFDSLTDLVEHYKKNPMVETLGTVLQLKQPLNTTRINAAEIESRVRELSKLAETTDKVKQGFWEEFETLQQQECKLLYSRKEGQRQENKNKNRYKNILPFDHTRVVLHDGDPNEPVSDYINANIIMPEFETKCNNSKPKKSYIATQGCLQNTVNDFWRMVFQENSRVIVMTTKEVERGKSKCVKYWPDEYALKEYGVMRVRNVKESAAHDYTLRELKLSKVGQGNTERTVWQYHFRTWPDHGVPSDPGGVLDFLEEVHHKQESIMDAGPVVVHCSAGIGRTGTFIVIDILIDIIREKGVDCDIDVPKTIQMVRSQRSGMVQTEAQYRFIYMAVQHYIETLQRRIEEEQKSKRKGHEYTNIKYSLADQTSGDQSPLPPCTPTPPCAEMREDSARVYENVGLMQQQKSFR

Row | Compound | pIC50 (Table 11 summary) | pIC50 [1]
1 | Cc1nc(N2CCC3(CC2)Cc2ccncc2[C@H]3N)c2ccnn2c1-c1cnn(C)c1C [Compound 133, (7S)-1′-[7-(1,5-dimethylpyrazol-4-yl)-6-methyl-pyrazolo[1,5-a]pyrazin-4-yl]spiro[5,7-dihydrocyclopenta[c]pyridine-6,4′-piperidine]-7-amine] | 7.68 | 7.68
2 | Cc1nc(N2CCC3(CC2)Cc2ncccc2[C@H]3N)c2c(CO)cnn2c1-c1ccccc1F [Compound 226, [4-[(5S)-5-aminospiro[5,7-dihydrocyclopenta[b]pyridine-6,4′-piperidine]-1′-yl]-7-(2-fluorophenyl)-6-methyl-pyrazolo[1,5-a]pyrazin-3-yl]methanol] | < 6.00 | < 6.00
3 | COc1cc2c(cn1)CC1(CCN(c3nc(C)c(-c4cnn(C)c4C)n4nccc34)CC1)[C@@H]2N [Compound 132, (5S)-1′-[7-(1,5-dimethylpyrazol-4-yl)-6-methyl-pyrazolo[1,5-a]pyrazin-4-yl]-3-methoxy-spiro[5,7-dihydrocyclopenta[c]pyridine-6,4′-piperidine]-5-amine] | 7.47 | 7.47
